# Experimental data taken from patent US20130338152A1, “FLUOROPHENYL BICYCLIC HETEROARYL COMPOUNDS” (IRM LLC, priority 2011, published 2013).
# Assays:
# IGF1R [1] = molecular target: T1, IGF1R (Homo sapiens, UniProt P08069); experiment: Enzymatic kinase assay (filter-binding/flashplate); format: biochemical
# Procedure: (§1) Two methods were used to analyze phosphorylated peptides and proteins produced by the listed tyrosine and serine/threonine-specific protein kinases: either using a filter-binding assay (FB), or using a flashplate assay (FP). The activities of protein kinases were assayed in the presence or absence of inhibitors, by measuring the incorporation of ^33P from [γ^33P]ATP into appropriate substrates.
# (§2) 96-well polypropylene microplates were used to assay the activity in the FB mode. To determine the inhibitory activity of compounds 10 μL of compound dilutions were pipetted into 96-well plates followed by the addition of 10 μL of assay mix and 10 μL of individual enzymes. With the addition of the enzymes the reactions were initiated and continued at RT. […] The final concentration of DMSO in the enzyme assays was 1%.
# (§3) Flashplates are available as 96-well standard (STFPs) or as streptavidin-(SAFPs) or nickel coated FPs (NiFPs) from Perkin Elmer. STFPs are 96-well polystyrene microplates in which the interior of each well is permanently coated with a thin layer of polystyrene-based scintillant. Streptavidin flashplates (SAFP) are 96 or 384-well STFPs coated with streptavidin. SAFPs are suitable for a wide variety of assay applications which utilize biotinylated capture molecules. NiFP or nickel chelate flashplates are 96- or 384-well STFPs coated with nickel chelate. NiFPs are designed for in-plate, radiometric assays which utilize 4- or 6-histidine tagged proteins and peptides.
# (§4) All kinase assays were performed in STFPs for 60 mins at RT and stopped with 50 μL of 0.5% H3PO4 except PKA which were carried out in polypropylene 96- and 384-well plates, respectively. […] All wells were then washed three times with 200 μL of 0.5% H3PO4 and the plates were dried at room temperature. The plates were sealed and counted in a microplate scintillation counter (TopCount NXT, TopCount NXT HTS). The final concentration of DMSO in the enzyme assays was 1%.
# InsR = InsR (Homo sapiens, UniProt P06213); experiment: Enzymatic kinase assay (filter-binding/flashplate); format: biochemical; conditions: enzymatic; read-out: InsR IC50 values
# Procedure: as §1, §2, §3, §4
# Aurora A = molecular target: T2, Aurora A (Homo sapiens, UniProt O14965); experiment: Enzymatic kinase assay; format: biochemical
# T2 sequence (O14965 1-403): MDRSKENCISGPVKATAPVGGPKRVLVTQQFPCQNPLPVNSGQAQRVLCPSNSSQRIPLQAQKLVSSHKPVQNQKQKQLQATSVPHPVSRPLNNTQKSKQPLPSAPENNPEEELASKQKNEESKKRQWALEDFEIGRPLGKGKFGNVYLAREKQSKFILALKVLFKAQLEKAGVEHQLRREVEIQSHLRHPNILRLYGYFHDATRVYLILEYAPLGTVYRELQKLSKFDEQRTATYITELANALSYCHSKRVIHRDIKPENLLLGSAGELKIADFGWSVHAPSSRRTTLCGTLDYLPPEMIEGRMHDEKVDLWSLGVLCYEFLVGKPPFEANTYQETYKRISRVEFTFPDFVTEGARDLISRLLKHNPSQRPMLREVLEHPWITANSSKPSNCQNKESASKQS
# Procedure: as §1, §2, §3, §4
# CDK2A = CDK2A (Homo sapiens, UniProt P24941); experiment: Enzymatic kinase assay; format: biochemical
# Procedure: as §1, §2, §3, §4
# COT1 = COT1 (Homo sapiens, UniProt P41279); experiment: Enzymatic kinase assay; format: biochemical
# Procedure: as §1, §2, §3, §4
# ERK2 = ERK2 (Homo sapiens, UniProt P28482); experiment: Enzymatic kinase assay; format: biochemical
# Procedure: as §1, §2, §3, §4
# EphA4 = EphA4 (Homo sapiens, UniProt P54764); experiment: Enzymatic kinase assay; format: biochemical
# Procedure: as §1, §2, §3, §4
# FGFR-4 = FGFR-4 (Homo sapiens, UniProt P22455); experiment: Enzymatic kinase assay; format: biochemical
# Procedure: as §1, §2, §3, §4
# GSK3beta = GSK3beta (Homo sapiens, UniProt P49841); experiment: Enzymatic kinase assay; format: biochemical
# Procedure: as §1, §2, §3, §4
# HER2 = HER2 (Homo sapiens, UniProt P04626); experiment: Enzymatic kinase assay; format: biochemical
# Procedure: as §1, §2, §3, §4
# JAK2 = JAK2 (Homo sapiens, UniProt O60674); experiment: Enzymatic kinase assay; format: biochemical
# Procedure: as §1, §2, §3, §4
# KDR = KDR (Homo sapiens, UniProt P35968); experiment: Enzymatic kinase assay; format: biochemical
# Procedure: as §1, §2, §3, §4
# LCK = LCK (Homo sapiens, UniProt P06239); experiment: Enzymatic kinase assay; format: biochemical
# Procedure: as §1, §2, §3, §4
# MK2 = MK2 (Homo sapiens, UniProt P49137); experiment: Enzymatic kinase assay; format: biochemical
# Procedure: as §1, §2, §3, §4
# P38a = P38a (Homo sapiens, UniProt Q16539); experiment: Enzymatic kinase assay; format: biochemical
# Procedure: as §1, §2, §3, §4
# PDGFRa = PDGFRa (Homo sapiens, UniProt P16234); experiment: Enzymatic kinase assay; format: biochemical
# Procedure: as §1, §2, §3, §4
# RET = RET (Homo sapiens, UniProt P07949); experiment: Enzymatic kinase assay; format: biochemical; conditions: enzymatic; read-out: RET IC50 values (converted)
# Procedure: as §1, §2, §3, §4
# TYK2 = TYK2 (Homo sapiens, UniProt P29597); experiment: Enzymatic kinase assay; format: biochemical
# Procedure: as §1, §2, §3, §4
# cABLT315 = cABLT315 (Homo sapiens, UniProt P00519, T315I); experiment: Enzymatic kinase assay; format: biochemical
# Procedure: as §1, §2, §3, §4
# cKIT = cKIT (Homo sapiens, UniProt P10721); experiment: Enzymatic kinase assay; format: biochemical
# Procedure: as §1, §2, §3, §4
# cMET = cMET (Homo sapiens, UniProt P08581); experiment: Enzymatic kinase assay; format: biochemical
# Procedure: as §1, §2, §3, §4
# hERG channels = hERG channels (Homo sapiens, UniProt Q12809); experiment: biochemical
# IGF1R [2] = molecular target: T1, IGF1R; experiment: Cellular IGF-1R assay: inhibition of IGF1R phosphorylation in Hek293 cells, capture ELISA (MSD); format: cell-based; set-up: expressed in transfected cells; host or cells: Hek293 (Hek293-IGF1R); conditions: IGF-triggered receptor phosphorylation
# Procedure: IVa. Cellular IGF-1R and InsR Assays
# Compound-mediated inhibition of IGF1R and INSR phosphorylation in Hek293 cells transduced with the corresponding receptors is assessed in a capture ELISA format using the MSD (Meso Scale Discovery) platform. Briefly, 30′000 cells washed and diluted in starvation medium (DMEM high glucose supplemented with 0.1% BSA) are seeded in 90 μL per well into 96-well plates pre-coated with poly-D-lysine (0.1 mg/mL in PBS/O). After 24 h incubation at 37° C. and 5% CO2, dose-response effects are determined with 3-fold serial compound dilutions, starting at 10 μM. The final vehicle concentration is 0.1% DMSO in all wells. Following pre-incubation with compounds for 1 h, receptor phosphorylation is triggered by a 10 min exposure to 1.0 ng/μL IGF for Hek293-IGF1R cells, and 5.0 ng/μL insulin for Hek293-InsR cells. Cell lysis is achieved by addition of 80 μL MSD lysis buffer per aspirated well, incubation on ice for 20 min, and a freeze-thaw cycle. Target phosphorylation is then assessed by transferring volumes corresponding to approx. 6 μg Hek293-IGF1R or 0.6 μg Hek293-InsR lysates to MSD assay plates pre-coated with total-IGF1R or total-InsR Abs, respectively. […] Immune complexes are detected by a SULFO-Tag™-coupled anti-rabbit IgG antibody in the presence of 150 μL MSD read-buffer. Light emission at 620 nm triggered by application of electric current is recorded on a MSD Sectorlmager 6000. Acquired raw data (mean Ru-ECL units) are processed in an Excel analysis template. The plate blank (MSD lysis buffer) is subtracted from all data points. The effect of a particular test compound concentration on receptor phosphorylation is expressed relative to the window defined by ligand-stimulated vs unstimulated control cells (set as 100%). IC50 values [nM] are determined using 4-parametric curve-fitting (XLfit software, V4.3.2).
# Sequence of cKIT (P10721 26-976): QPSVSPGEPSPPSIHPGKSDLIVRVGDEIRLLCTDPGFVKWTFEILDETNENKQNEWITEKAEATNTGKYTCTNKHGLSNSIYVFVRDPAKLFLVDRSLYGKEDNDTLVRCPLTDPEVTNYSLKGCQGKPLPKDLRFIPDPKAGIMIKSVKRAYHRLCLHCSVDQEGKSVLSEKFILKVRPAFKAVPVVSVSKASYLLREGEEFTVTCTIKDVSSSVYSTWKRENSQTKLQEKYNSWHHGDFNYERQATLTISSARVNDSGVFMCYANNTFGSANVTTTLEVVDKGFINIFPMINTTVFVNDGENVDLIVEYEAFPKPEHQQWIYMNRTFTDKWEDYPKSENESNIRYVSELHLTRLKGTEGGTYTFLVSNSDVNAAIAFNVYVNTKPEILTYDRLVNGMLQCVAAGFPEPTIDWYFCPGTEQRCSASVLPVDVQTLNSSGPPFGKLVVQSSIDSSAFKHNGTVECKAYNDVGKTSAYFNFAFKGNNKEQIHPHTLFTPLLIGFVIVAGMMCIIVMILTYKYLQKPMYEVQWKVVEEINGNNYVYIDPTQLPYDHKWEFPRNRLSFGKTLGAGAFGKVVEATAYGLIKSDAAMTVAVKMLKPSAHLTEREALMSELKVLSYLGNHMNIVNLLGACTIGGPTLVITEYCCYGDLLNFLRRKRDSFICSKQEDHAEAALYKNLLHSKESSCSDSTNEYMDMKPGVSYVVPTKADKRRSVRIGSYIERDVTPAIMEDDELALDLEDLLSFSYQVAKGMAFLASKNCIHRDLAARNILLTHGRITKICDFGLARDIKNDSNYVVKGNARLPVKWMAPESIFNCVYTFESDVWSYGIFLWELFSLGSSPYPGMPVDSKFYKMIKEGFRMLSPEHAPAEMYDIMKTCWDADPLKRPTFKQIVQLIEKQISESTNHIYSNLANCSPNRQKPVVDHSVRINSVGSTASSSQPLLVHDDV
# Sequence of InsR (P06213 28-1382, species assumed): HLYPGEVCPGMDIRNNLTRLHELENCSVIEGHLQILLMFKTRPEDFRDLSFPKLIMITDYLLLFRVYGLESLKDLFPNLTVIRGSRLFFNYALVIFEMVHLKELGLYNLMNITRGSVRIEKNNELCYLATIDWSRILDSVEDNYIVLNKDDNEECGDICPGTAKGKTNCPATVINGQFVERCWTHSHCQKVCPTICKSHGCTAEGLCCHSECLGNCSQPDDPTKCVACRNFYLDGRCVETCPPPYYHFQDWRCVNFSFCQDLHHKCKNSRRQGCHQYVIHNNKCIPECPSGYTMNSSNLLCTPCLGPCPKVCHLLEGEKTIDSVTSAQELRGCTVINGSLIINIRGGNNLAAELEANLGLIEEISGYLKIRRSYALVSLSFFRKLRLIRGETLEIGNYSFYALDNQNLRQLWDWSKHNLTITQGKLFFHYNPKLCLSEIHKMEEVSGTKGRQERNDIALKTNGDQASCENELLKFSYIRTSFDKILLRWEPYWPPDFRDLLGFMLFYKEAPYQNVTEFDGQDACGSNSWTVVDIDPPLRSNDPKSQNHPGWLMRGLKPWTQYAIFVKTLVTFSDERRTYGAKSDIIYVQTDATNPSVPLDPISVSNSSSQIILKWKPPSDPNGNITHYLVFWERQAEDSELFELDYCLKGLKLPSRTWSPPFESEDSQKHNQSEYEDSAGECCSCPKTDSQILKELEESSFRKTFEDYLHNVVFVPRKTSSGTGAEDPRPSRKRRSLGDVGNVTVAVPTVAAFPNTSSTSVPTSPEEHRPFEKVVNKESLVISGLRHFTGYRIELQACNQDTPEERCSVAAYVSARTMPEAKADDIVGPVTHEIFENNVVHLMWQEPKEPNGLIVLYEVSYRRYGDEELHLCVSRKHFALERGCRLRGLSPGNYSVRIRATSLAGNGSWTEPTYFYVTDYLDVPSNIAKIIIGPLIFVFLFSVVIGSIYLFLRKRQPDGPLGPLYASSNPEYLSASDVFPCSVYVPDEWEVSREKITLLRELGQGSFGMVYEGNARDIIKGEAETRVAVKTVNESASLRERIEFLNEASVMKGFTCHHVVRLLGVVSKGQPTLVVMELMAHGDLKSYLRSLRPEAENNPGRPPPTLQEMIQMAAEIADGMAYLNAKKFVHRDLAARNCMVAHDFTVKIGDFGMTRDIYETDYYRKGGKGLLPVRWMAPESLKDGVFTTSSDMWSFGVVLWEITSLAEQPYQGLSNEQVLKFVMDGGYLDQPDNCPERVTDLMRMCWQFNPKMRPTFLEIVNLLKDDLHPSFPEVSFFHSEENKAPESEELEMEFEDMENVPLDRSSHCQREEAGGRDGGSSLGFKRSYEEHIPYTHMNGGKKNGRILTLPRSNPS
# Sequence of JAK2 (O60674 whole entry, species assumed): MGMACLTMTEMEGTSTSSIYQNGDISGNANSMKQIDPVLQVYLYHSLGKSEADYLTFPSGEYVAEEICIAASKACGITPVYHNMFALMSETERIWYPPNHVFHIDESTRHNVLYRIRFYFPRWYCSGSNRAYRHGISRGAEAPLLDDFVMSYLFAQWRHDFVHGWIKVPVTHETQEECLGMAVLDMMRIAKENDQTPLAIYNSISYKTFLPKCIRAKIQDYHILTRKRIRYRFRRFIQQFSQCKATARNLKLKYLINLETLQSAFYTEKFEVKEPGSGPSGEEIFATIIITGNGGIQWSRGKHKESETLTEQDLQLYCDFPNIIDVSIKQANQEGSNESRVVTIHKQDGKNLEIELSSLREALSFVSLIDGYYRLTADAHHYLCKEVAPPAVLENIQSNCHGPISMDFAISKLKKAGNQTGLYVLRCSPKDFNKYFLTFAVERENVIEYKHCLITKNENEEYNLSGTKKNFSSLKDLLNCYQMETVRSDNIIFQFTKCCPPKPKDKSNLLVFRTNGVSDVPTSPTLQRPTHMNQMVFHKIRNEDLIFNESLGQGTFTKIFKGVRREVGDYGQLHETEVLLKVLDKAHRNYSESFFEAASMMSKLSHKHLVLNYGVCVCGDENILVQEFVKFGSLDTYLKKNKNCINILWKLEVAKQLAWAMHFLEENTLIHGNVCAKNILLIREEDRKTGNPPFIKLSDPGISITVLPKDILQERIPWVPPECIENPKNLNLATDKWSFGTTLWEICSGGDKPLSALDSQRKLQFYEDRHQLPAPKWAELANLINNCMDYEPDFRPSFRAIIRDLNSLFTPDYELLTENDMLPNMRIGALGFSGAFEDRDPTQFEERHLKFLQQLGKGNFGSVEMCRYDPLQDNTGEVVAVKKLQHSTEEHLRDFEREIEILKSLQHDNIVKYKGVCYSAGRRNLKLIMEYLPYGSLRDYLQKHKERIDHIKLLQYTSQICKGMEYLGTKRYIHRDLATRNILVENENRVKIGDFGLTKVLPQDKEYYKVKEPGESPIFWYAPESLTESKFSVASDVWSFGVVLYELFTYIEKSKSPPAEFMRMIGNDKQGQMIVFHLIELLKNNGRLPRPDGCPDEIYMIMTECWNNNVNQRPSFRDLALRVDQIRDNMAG
# Sequence of TYK2 (P29597 whole entry, species assumed): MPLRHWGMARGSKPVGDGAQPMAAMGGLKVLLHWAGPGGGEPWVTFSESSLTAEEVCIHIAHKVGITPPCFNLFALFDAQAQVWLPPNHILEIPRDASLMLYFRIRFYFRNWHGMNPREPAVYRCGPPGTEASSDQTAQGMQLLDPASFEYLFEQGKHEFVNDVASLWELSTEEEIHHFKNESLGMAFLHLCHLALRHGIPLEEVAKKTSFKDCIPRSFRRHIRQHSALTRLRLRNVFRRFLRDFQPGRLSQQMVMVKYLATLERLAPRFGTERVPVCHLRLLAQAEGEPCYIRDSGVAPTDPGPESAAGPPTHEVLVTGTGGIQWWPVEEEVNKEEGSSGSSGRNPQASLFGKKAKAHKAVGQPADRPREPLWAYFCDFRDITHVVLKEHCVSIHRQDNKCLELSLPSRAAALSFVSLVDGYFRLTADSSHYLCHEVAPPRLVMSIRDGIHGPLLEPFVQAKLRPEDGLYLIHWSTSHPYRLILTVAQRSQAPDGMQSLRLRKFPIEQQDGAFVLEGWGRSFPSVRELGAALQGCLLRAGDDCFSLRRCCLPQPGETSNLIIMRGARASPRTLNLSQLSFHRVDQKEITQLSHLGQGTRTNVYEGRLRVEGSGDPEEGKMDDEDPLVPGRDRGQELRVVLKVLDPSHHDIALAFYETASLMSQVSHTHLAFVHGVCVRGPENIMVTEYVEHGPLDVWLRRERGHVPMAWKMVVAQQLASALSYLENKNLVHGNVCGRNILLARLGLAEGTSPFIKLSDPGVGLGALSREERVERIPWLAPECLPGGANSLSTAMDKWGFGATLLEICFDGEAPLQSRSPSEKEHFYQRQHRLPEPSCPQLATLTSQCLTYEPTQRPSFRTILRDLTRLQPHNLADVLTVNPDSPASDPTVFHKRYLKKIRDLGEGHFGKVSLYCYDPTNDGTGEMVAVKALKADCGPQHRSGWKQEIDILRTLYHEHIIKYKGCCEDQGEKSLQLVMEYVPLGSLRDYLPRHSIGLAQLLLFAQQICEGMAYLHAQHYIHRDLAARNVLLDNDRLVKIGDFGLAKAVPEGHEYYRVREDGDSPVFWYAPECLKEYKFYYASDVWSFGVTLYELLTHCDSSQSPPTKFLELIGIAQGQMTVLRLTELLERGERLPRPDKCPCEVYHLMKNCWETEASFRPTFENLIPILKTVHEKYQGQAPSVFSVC
# Sequence of ERK2 (P28482 whole entry, species assumed): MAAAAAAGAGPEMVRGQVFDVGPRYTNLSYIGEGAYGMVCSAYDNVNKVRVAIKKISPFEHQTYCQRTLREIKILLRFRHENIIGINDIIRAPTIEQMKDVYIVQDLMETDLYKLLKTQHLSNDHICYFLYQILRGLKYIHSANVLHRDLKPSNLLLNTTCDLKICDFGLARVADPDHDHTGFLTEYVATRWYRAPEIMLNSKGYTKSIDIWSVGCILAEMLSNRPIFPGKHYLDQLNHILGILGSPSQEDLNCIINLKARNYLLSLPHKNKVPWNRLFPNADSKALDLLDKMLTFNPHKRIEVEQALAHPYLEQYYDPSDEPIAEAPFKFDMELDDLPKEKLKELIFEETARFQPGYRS
IC50 (IGF1R [1]),IC50 (InsR),IC50 (Aurora A),IC50 (CDK2A),IC50 (COT1),IC50 (ERK2),IC50 (EphA4),IC50 (FGFR-4),IC50 (GSK3beta),IC50 (HER2),IC50 (JAK2),IC50 (KDR),IC50 (LCK),IC50 (MK2),IC50 (P38a),IC50 (PDGFRa),IC50 (RET),IC50 (TYK2),IC50 (cABLT315),IC50 (cKIT),Structure (SMILES),other results
0.013 µM,0.25 µM,> 10 µM,> 10 µM,> 10 µM,> 10 µM,> 10 µM,> 10 µM,> 10 µM,> 10 µM,> 10 µM,4.5 µM,> 10 µM,> 10 µM,> 10 µM,> 10 µM,> 10 µM,> 10 µM,> 10 µM,> 10 µM,"Nc1ncnc2c1c(-c1cccc(OC[C@@H]3CCCO3)c1F)cn2C1CC2(CNC(=O)O2)C1 (stereo partly drawn) [Example 4, 2-(4-Amino-5-{2-fluoro-3-[(S)-1-(tetrahydro-furan-2-yl)methoxy]-phenyl}-pyrrolo[2,3-d]pyrimidin-7-yl)-5-oxa-7-aza-spiro[3.4]octan-6-one]",IC50 (cMET): > 10 µM; IC50 (hERG channels): 8.7 µM; IC50 (IGF1R [2]): 0.017 µM
0.0038 µM,0.039 µM,> 10 µM,> 10 µM,> 10 µM,> 10 µM,> 10 µM,> 10 µM,> 10 µM,> 10 µM,> 10 µM,5.7 µM,8.6 µM,> 10 µM,> 10 µM,8.3 µM,3.4 µM,> 10 µM,> 10 µM,0.77 µM,"Nc1ncnc2c1c(-c1cccc(OC[C@@H]3CCCO3)c1F)cn2[C@H]1C[C@@H](CN2CC[S+]([O-])CC2)C1 [Example 6, 5-{2-Fluoro-3-[(S)-1-(tetrahydro-furan-2-yl)methoxy]-phenyl}-7-[cis-3-(1-oxo-thiomorpholin-4-ylmethyl)-cyclobutyl]-7H-pyrrolo[2,3-d]pyrimidin-4-ylamine]",IC50 (cMET): > 10 µM; IC50 (hERG channels): > 30 µM; IC50 (IGF1R [2]): 0.01 µM
0.022 µM,0.13 µM,> 10 µM,> 10 µM,> 10 µM,> 10 µM,> 10 µM,> 10 µM,> 10 µM,> 10 µM,> 10 µM,> 10 µM,6.6 µM,> 10 µM,> 10 µM,> 10 µM,> 10 µM,> 10 µM,> 10 µM,> 10 µM,"[2H]C1([2H])C([2H])([2H])C2(COc3cccc(-c4cn([C@H]5C[C@](O)(CO)C5)c5ncnc(N)c45)c3F)OC1([2H])C([2H])([2H])C2([2H])[2H] [Example 27, d9-(Z)-3-{4-Amino-5-[2-fluoro-3-(7-oxa-bicyclo[2.2.1]hept-1-ylmethoxy)-phenyl]-pyrrolo[2,3-d]pyrimidin-7-yl}-1-hydroxymethyl-cyclobutanol]",IC50 (cMET): > 10 µM; IC50 (hERG channels): > 30 µM
0.03 µM,1.3 µM,> 10 µM,> 10 µM,> 10 µM,> 10 µM,> 10 µM,> 10 µM,> 10 µM,> 10 µM,> 10 µM,> 10 µM,9.7 µM,> 10 µM,> 10 µM,> 10 µM,3.1 µM,> 10 µM,> 10 µM,> 10 µM,"CC(=O)N1CCN([C@H]2C[C@H](n3cc(-c4cc(OC[C@@H]5CCCO5)ccc4F)c4c(N)ncnc43)C2)CC1 [Example 36, 1-{4-[trans-3-(4-Amino-5-{2-fluoro-5-[(S)-1-(tetrahydro-furan-2-yl)methoxy]-phenyl}-pyrrolo[2,3-d]pyrimidin-7-yl)-cyclobutyl]-piperazin-1-yl}-ethanone]",IC50 (cMET): > 10 µM; IC50 (hERG channels): > 30 µM
0.0087 µM,0.27 µM,> 10 µM,> 10 µM,> 10 µM,> 10 µM,> 10 µM,> 10 µM,> 10 µM,> 10 µM,> 10 µM,9.2 µM,> 10 µM,> 10 µM,> 10 µM,> 10 µM,> 10 µM,> 10 µM,> 10 µM,> 10 µM,"Nc1ncnc2c1c(-c1cc(OC[C@@H]3CCCO3)ccc1F)cn2[C@H]1C[C@@H](N2CCN(C(=O)CO)CC2)C1 [Example 40, 1-{4-[cis-3-(4-Amino-5-{2-fluoro-5-[(S)-1-(tetrahydro-furan-2-yl)methoxy]-phenyl}-pyrrolo[2,3-d]pyrimidin-7-yl)-cyclobutyl]-piperazin-1-yl}-2-hydroxy-ethanone]",IC50 (cMET): > 10 µM; IC50 (hERG channels): > 30 µM
